For assay [1], the system named is frog. Briefly: Concentration in urinary bladder of female frog. It is filed as functional, tissue-based.
Assay [2] in a line: Compound was tested for its ability to inhibit the urea facilitated transport in the urinary bladder of female frog after illumination, activity expressed as irreversibility of illumination. It is filed as functional.
A short description of assay [3]: Compound was tested for its ability to inhibit the urea facilitated transport in the urinary bladder of female frog, activity expressed as percent inhibition. The format is functional.
For assay [4], the system named is frog. Briefly: Concentration in urinary bladder of female frog; very low solubility. The format is functional, tissue-based.

Five compounds from ChEMBL document CHEMBL1127154, “Azido-functionalized thiourea analogues acting as efficient photoaffinity probes for the urea channel” (1993) can be followed below.

Molecules are shown by their SMILES.

Usually Inhibition stands for the drop in the measured response relative to a control, in per cent. A higher Inhibition goes with a response far below the control. In the assay on frog [1], `[N-]=[N+]=Nc1ccc(/N=C(/N)S)cc1` registered a Concentration of 500 µM. In assay [2], this compound displayed an Irreversibility of 100%. The compound also yielded an Inhibition in assay [3] of 25%.

As for `C/N=C(\S)Nc1nc2cc(N=[N+]=[N-])ccc2[nH]1`, in the assay with frog [1], the Concentration came out at 500 µM. This compound yielded an Irreversibility in assay [2] of 100%. Besides, the Inhibition in assay [3] is listed as 29%.

Take `[N-]=[N+]=Nc1ccc(NC(=S)Nc2ccc(Cl)c(Cl)c2)cc1`: in the assay on frog [4], the Concentration result is listed as “very low solubility”.

In the assay on frog [1], `C/N=C(\S)Nc1ccc(Cl)c(N=[N+]=[N-])c1` gave a Concentration of 31.6 µM. Besides, the Irreversibility in assay [2] came to 100%. Besides, in assay [3], the Inhibition worked out at 50%.

As to `[N-]=[N+]=Nc1cc(/N=C(/N)S)ccc1Cl`, the Concentration in the assay with frog [1] turned out to be 60.3 µM. In assay [2], this compound returned an Irreversibility of 100%. In assay [3], the Inhibition is recorded as 50%.
